Measurements taken from ChEMBL document CHEMBL1201862, “PubChem BioAssay data set” (2004).
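Where inhibition never reached the appropriate level, the endpoint shown equals the highest concentration tested. Otherwise, values were interpolated linearly from a five-concentration, 48-hour dose response in 96-well plates. The concentration for 50% growth inhibition is given as GI50.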 The source made the active and inactive calls. No stated cut-off is given here; in the data, active = GI50 up to about 1.1 µM and inactive = higher.

Columns and labels:
Experiment in all cases: NCI anticancer screen, dose series, 48 h
[1] = test system: A498
[2] = test system: A549
[3] = test system: CCRF-CEM
[4] = test system: COLO 205
[5] = test system: EKVX
[6] = test system: HT-29
[7] = test system: Hs-578T
[8] = test system: IGROV-1
[9] = test system: LOX IMVI
[10] = test system: NCI-H460
[11] = test system: OVCAR-8
[12] = test system: RXF 393
[13] = test system: SF-268
[14] = test system: SK-MEL-28
[15] = test system: SK-MEL-2
[16] = test system: SR
[17] = test system: T47D
[18] = test system: UACC-257
[19] = test system: UACC-62
[20] = test system: UO-31

Structure (SMILES)	GI50 [1]	GI50 [2]	GI50 [3]	GI50 [4]	GI50 [5]	GI50 [6]	GI50 [7]	GI50 [8]	GI50 [9]	GI50 [10]	GI50 [11]	GI50 [12]	GI50 [13]	GI50 [14]	GI50 [15]	GI50 [16]	GI50 [17]	GI50 [18]	GI50 [19]	GI50 [20]
CCN(CC)CC(O)CNc1ccc(NCC(O)CCl)c2c1C(=O)c1ccccc1C2=O (stereo not given)	13.5 µM (inactive)	9.27 µM (inactive)	1.06 µM (active)	6.47 µM (inactive)	14.9 µM (inactive)	3.31 µM (inactive)	11.6 µM (inactive)	10 µM (inactive)	0.478 µM (active)	2.78 µM (inactive)	3.85 µM (inactive)	12.6 µM (inactive)	2.65 µM (inactive)	11.5 µM (inactive)	12.2 µM (inactive)	1.05 µM (active)	21.1 µM (inactive)	6.04 µM (inactive)	14.4 µM (inactive)	4.59 µM (inactive)
CC(=O)n1nc(-c2nc3ccccc3nc2Cl)cc1Cl	> 71.4 µM (inactive)	29.5 µM (inactive)	2.45 µM (inactive)	18.4 µM (inactive)	12.5 µM (inactive)	23 µM (inactive)	34.5 µM (inactive)	30.1 µM (inactive)	5.47 µM (inactive)	32.8 µM (inactive)	26.4 µM (inactive)	40.7 µM (inactive)	38.6 µM (inactive)	24.7 µM (inactive)	25.6 µM (inactive)	3.34 µM (inactive)	68.4 µM (inactive)	> 68.1 µM (inactive)	27.2 µM (inactive)	1.39 µM (inactive)
CSC(=S)N(C)C [CYSTOGON]	> 100 µM (inactive)	> 100 µM (inactive)	> 100 µM (inactive)	> 100 µM (inactive)	> 100 µM (inactive)	> 100 µM (inactive)	> 100 µM (inactive)	> 100 µM (inactive)	> 100 µM (inactive)	> 100 µM (inactive)	> 100 µM (inactive)	> 100 µM (inactive)	> 100 µM (inactive)	> 100 µM (inactive)	> 100 µM (inactive)	> 100 µM (inactive)	> 100 µM (inactive)	> 100 µM (inactive)	> 100 µM (inactive)	> 100 µM (inactive)
C=C(C)[C@@]12C[C@H](OC(=O)[C@H](O)[C@@H](NC(=O)c3ccccc3)c3ccccc3)C(C)=C1[C@@H](OC(C)=O)C(=O)[C@@]1(C)C([C@@H]2OC(=O)c2cc(F)cc(F)c2)C2(OC(C)=O)CO[C@@H]2C[C@@H]1O (stereo not given in full)	0.164 µM (active)	0.0752 µM (active)	0.0367 µM (active)	0.0789 µM (active)	1.02 µM (active)	0.0278 µM (active)	0.0186 µM (active)	0.361 µM (active)	0.0791 µM (active)	0.0348 µM (active)	0.065 µM (active)	0.0578 µM (active)	0.161 µM (active)	0.363 µM (active)	0.144 µM (active)	0.169 µM (active)	0.117 µM (active)	0.0796 µM (active)	0.076 µM (active)	0.973 µM (active)
CCC/C(=N\NC(=S)N1CC2CCC(CC2)C1)c1ccccn1	0.708 µM (active)	0.414 µM (active)	0.0186 µM (active)	0.0205 µM (active)	0.0434 µM (active)	0.0432 µM (active)	0.213 µM (active)	0.167 µM (active)	0.542 µM (active)	0.22 µM (active)	0.0877 µM (active)	0.51 µM (active)	0.641 µM (active)	0.783 µM (active)	0.0813 µM (active)	0.0495 µM (active)	0.00425 µM (active)	0.0252 µM (active)	0.0479 µM (active)	1.1 µM (active)
CCOC(=O)/C=C(\C(=O)OCC)n1ccc(=O)[nH]c1=O	19.1 µM (inactive)	29.8 µM (inactive)	2.16 µM (inactive)	2.67 µM (inactive)	16 µM (inactive)	15.2 µM (inactive)	29.4 µM (inactive)	15.4 µM (inactive)	12.8 µM (inactive)	21.7 µM (inactive)	24 µM (inactive)	10.6 µM (inactive)	20 µM (inactive)	16.9 µM (inactive)	23.4 µM (inactive)	10.4 µM (inactive)	6.59 µM (inactive)	4.72 µM (inactive)	16.4 µM (inactive)	16.9 µM (inactive)
CC(=O)Nc1ncc(Sc2ccccc2C(=O)O)s1	> 100 µM (inactive)	> 100 µM (inactive)	> 100 µM (inactive)	> 100 µM (inactive)	> 100 µM (inactive)	> 100 µM (inactive)	> 100 µM (inactive)	> 100 µM (inactive)	> 100 µM (inactive)	> 100 µM (inactive)	> 100 µM (inactive)	> 100 µM (inactive)	> 100 µM (inactive)	> 100 µM (inactive)	> 100 µM (inactive)	> 100 µM (inactive)	> 100 µM (inactive)	> 100 µM (inactive)	> 100 µM (inactive)	> 100 µM (inactive)
